The record followed here is ChEMBL document CHEMBL1132912, “Cytotoxic alpha-bromoacrylic derivatives of distamycin analogues modified at the amidino moiety” (Bioorg Med Chem Lett, 2000).

A word on the T/C: it is the result in the treated group divided by that in the control group, in per cent.

Holding throughout (assay type): functional
The subject of assay [1] is Mus musculus. Nature of the assay: In vivo antileukemic activity was determined in mice infected with L1210 leukemia cell after intravenous of treated versus untreated mice 10).
Assay [2] has as its system Mus musculus. Description: In vivo antileukemic activity was determined on L1210 leukemia cell in mice (O.D.=optimal (non-toxic) dose <LD10).
Assay [3] deals with Mus musculus. Description: In vivo antileukemic activity was determined in mice infected with L1210 leukemia cell after intravenous administration (T/C=median survival time of treated versus untreated mice 10).

The structures appear in SMILES notation.

In assay [1], `C=C(Br)C(=O)Nc1cc(C(=O)Nc2cc(C(=O)Nc3cc(C(=O)Nc4cc(C(=O)NCCC(N)=O)n(C)c4)n(C)c3)n(C)c2)n(C)c1.Cl` came in with a T/C of 169%. Further, the OD in assay [2] came out at 6.25 mg/kg.

Take `C=C(Br)C(=O)Nc1cc(C(=O)Nc2cc(C(=O)Nc3cc(C(=O)Nc4cc(C(=O)NCCC#N)n(C)c4)n(C)c3)n(C)c2)n(C)c1.Cl`: the OD in assay [2] came out at 12.5 mg/kg. In assay [3], this molecule displayed a T/C of 157%.

As to `C=C(Br)C(=O)Nc1cc(C(=O)Nc2cc(C(=O)Nc3cc(C(=O)Nc4cc(C(=O)NCCN=C(N)N)n(C)c4)n(C)c3)n(C)c2)n(C)c1.Cl`, the T/C in assay [1] is 196%. The OD in assay [2] worked out at 1.56 mg/kg.

`C=C(Br)C(=O)Nc1cc(C(=O)Nc2cc(C(=O)Nc3cc(C(=O)Nc4cc(C(=O)NCCC(=N)NC#N)n(C)c4)n(C)c3)n(C)c2)n(C)c1.Cl` registered a T/C in assay [1] of 157%. This molecule had an OD in assay [2] of 3.13 mg/kg.

Molecule `C=C(Br)C(=O)Nc1cc(C(=O)Nc2cc(C(=O)Nc3cc(C(=O)Nc4cc(C(=O)NCC/C(=N/C)NC)n(C)c4)n(C)c3)n(C)c2)n(C)c1.Cl` came in with a T/C in assay [1] of 258%. The molecule further displayed an OD in assay [2] of 1.56 mg/kg.

In turn, `C=C(Br)C(=O)Nc1cc(C(=O)Nc2cc(C(=O)Nc3cc(C(=O)Nc4cc(C(=O)NCCC(=N)NO)n(C)c4)n(C)c3)n(C)c2)n(C)c1.Cl` came in with a T/C in assay [1] of 186%. In addition, in assay [2], the OD was determined as 6.25 mg/kg.

In assay [1], `C=C(Br)C(=O)Nc1cc(C(=O)Nc2cc(C(=O)Nc3cc(C(=O)Nc4cc(C(=O)NCCC(=N)NC)n(C)c4)n(C)c3)n(C)c2)n(C)c1.Cl` displayed a T/C of 150%. The molecule further displayed an OD in assay [2] of 3.13 mg/kg.
